Where two headings read alike, the source gives them in different places. Values belong to the compound of their own block, whether it stands above or below them.
Key:
ACLY [1] = target: T1, ACLY (Homo sapiens, UniProt P53396); details: cited from earlier work
T1 construct: His; made in house; host or cells: Escherichia coli BL21(DE3)
T1 sequence (P53396 1-1101): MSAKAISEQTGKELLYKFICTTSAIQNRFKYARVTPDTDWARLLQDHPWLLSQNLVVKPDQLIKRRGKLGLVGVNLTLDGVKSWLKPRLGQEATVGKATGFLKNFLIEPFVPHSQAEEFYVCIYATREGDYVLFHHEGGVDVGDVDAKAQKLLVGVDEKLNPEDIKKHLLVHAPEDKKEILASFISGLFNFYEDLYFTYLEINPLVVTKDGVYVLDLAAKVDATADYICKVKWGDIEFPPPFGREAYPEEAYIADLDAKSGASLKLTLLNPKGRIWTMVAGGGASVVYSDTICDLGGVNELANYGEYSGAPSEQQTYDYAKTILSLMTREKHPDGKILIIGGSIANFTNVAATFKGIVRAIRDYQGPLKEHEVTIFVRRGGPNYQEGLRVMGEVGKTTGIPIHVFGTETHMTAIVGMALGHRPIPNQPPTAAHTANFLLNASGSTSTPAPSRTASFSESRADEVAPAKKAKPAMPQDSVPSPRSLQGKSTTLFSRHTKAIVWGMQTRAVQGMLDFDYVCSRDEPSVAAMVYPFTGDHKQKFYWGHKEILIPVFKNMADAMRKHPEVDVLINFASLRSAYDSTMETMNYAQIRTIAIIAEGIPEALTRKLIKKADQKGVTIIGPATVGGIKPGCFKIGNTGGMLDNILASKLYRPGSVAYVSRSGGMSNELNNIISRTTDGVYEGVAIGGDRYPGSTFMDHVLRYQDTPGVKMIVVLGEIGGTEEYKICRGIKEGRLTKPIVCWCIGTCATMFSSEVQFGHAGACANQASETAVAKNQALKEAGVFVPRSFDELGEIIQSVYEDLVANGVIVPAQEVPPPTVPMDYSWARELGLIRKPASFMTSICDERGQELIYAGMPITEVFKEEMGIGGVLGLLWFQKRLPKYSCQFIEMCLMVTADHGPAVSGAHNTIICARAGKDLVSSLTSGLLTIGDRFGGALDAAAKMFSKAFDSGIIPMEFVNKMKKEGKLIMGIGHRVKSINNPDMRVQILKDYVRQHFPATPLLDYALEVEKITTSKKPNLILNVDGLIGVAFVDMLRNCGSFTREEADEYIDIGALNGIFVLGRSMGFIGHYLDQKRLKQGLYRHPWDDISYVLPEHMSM

ACLY [2] = target: T1, ACLY; experiment: ACLY enzymatic inhibition assay (ADP-Glo Kinase Assay); type: biochemical; details: for IC50: concentration-response curves; for inhibition rate: preliminary screening, concentration of 10 µm;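 for all read-outs here: purified recombinant His-tagged human ACLY, compounds preincubated with enzyme 15 min, then ADP formed measured as luciferase luminescence after ADP-Glo reagent depletes leftover ATP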
[3] = test system: mice fed on a high-fat diet; design: method as in PMID 17383874; details: cited from earlier work
[4] = Cell-free aggregation assay (DMR, Epic BT system); type: physicochemical; details: for critical aggregation concentration (CAC): reaction buffer, DMR responses at a fixed time
Protocol: The aggregation assay was performed using an Epic BT system (Corning, NY, USA). Reaction buffer (30 μL) was aliquoted in an Epic 384-well microplate (Corning, NY, USA) and equilibrated for 1 h. Then 10 μL compound solution was added and the microplate was placed on the Epic reader. Dynamic mass redistribution (DMR) signals were recorded for 1 h.

human ACLY = test system: human ACLY; design: method as in PMID 30944472; details: cited from earlier work
ACLY [5] = target: T1, ACLY; experiment: Thermal shift assay (Sypro Orange); type: binding; details: DMSO control 54.5 °C
Protocol: The thermal shift assay was conducted in a real-time PCR machine (Bio-Rad, Hercules, CA, USA). Sypro Orange fluorescent dye was used to monitor protein folding/unfolding. Purified ACLY and compound solutions were preincubated in low-profile PCR tubes for 15 min at room temperature, and then Sypro Orange was added and incubated for another 15 min on ice. The total volume was 20 μL. The final concentration of ACLY was 1.45 μM and Sypro Orange was 12.5×. The PCR tubes were heated from 25 to 90 °C at a heating rate of 0.5 °C/10 s. The fluorescence intensity changes in each well were recorded. Tm (transition midpoint) was read from the melting curve.

ACLY [6] = target: T1, ACLY; experiment: Western blotting analysis of ACLY thermal stability; type: binding
Protocol: Purified ACLY was preincubated with compounds or DMSO in tubes at room temperature for 15 min. The final concentration of ACLY was 0.58 μM. Then the solution was aliquoted into 200 μL PCR tubes and heated at the indicated temperature for 3 min. […] The SDS–PAGE samples were prepared in 1× loading buffer. A separation gel (8%) and stacking gel (5%) were used to separate and transfer target proteins onto PVDF membranes (0.45 μm). The membranes were blocked at room temperature for 1 h with a blocking solution (Beyotime, Shanghai, China), followed by addition of a primary antibody at room temperature for another 2 h. HRP-linked IgG was used as the secondary antibody and incubated at room temperature for 1 h. Protein bands were imaged by molecular imager ChemiDoc XRS+ (Bio-rad, Hercules, CA, USA).

ACLY [7] = target: T1, ACLY; experiment: Enzymatic kinetic studies (Michaelis-Menten, Lineweaver-Burk); type: biochemical
Protocol: The inhibition profile of herbacetin against ACLY was determined by the Michaelis–Menten equation and Lineweaver–Burk curve. Reaction rates were recorded separately at different concentrations of substrates with various inhibitor concentrations. […] For competitive inhibition, Vmax is constant, Km decreases; for noncompetitive inhibition, Km is constant, Vmax decreases; for uncompetitive inhibition, both Vmax and Km decrease, while Km/Vmax is constant. Ki values could be calculated according to the following equations. [table]

[8] = natural ACLY inhibitors, discussion, no reference given

Compound: O=C(/C=C/c1ccc(O)c(O)c1)O[C@@H]1C[C@](O)(C(=O)O)C[C@@H](OC(=O)/C=C/c2ccc(O)c(O)c2)[C@H]1O [isochlorogenic acid A]
IC50 (ACLY [1]; [8]): 0.1 µM

Compound: O=C1c2c(O)cc(O)cc2OC(c2ccc(O)c(O)c2)C1O (centres unmarked) [compound 19, Taxifolin]
IC50 (ACLY [2]): 2.54 ± 0.25 µM

Compound: COc1ccc(-c2ccccc2)cc1NS(=O)(=O)c1cc(Cl)cc(Cl)c1O [BMS–303141]
plasma cholesterol, triglyceride and glucose levels [3]: lowered plasma cholesterol, triglyceride and glucose levels

Compound: C[C@@H]1C[C@H]2O[C@@H]2/C=C\C=C\C(=O)Cc2c(Cl)c(O)cc(O)c2C(=O)O1 [radicicol]
Ki (ACLY [1]; [8]): 10 µM

Compound: O=C(O)[C@H]1O[C@@H](Oc2cc3oc(-c4ccc(O)cc4)cc(=O)c3c(O)c2O)[C@H](O)[C@@H](O)[C@@H]1O [compound 53, Scutellarin]
IC50 (ACLY [2]): 3.77 ± 0.26 µM

Compound: O=c1cc(-c2ccc(O)c(O)c2)oc2cc(O)c([C@@H]3O[C@H](CO)[C@@H](O)[C@H](O)[C@H]3O)c(O)c12 [compound 14, Isoorientin]
IC50 (ACLY [2]): 1.86 ± 0.29 µM

Compound: O=C(O)[C@H]1O[C@@H](Oc2cc(O)c3c(=O)cc(-c4ccc(O)c(O)c4)oc3c2)[C@H](O)[C@@H](O)[C@@H]1O [compound 5, Luteolin 7-O-glucuronide]
IC50 (ACLY [2]): 1.47 ± 0.2 µM

Compound: C[C@@H]1O[C@@H](O[C@H]2[C@H](Oc3cc(O)c4c(=O)cc(-c5ccc(O)c(O)c5)oc4c3)O[C@H](CO)[C@@H](O)[C@@H]2O)[C@H](O)[C@H](O)[C@H]1O [compound 15, Lonicerin]
IC50 (ACLY [2]): 1.43 ± 0.44 µM

Compound: O=c1c(O)c(-c2cc(O)c(O)c(O)c2)oc2cc(O)cc(O)c12 [compound 89, Myricetin]
IC50 (ACLY [2]): 0.57 ± 0.03 µM
critical aggregation concentration (CAC) [4]: 1.82 µM

Compound: Oc1cc(O)c2c(c1)O[C@H](c1ccc(O)c(O)c1)[C@H](O)C2 [compound 75, Epicatechin]
IC50 (ACLY [2]): 31.6 ± 9.45 µM

Compound: O=C(O)CC(O)(C(=O)O)C(O)C(=O)O (centres unmarked) [Hydroxycitric acid]
Ki (ACLY [1]): 3 µM
Ki (ACLY [1]; [8]): 300 µM

Compound: COC(=O)c1cc(Cl)c(O)c(S(=O)(=O)Nc2cc(-c3ccccc3)c(F)cc2F)c1 [NDI–091143]
potency (human ACLY): nanomolar potency

Compound: anthrone
IC50 (ACLY [1]; [8]): 0.28 µM

Compound: antimycin
Ki (ACLY [1]; [8]): 4 µM

Compound: COc1cc(-c2oc3cc(O)cc(O)c3c(=O)c2O)ccc1O [compound 44, Isorhamnetin]
IC50 (ACLY [2]): 49.7 ± 14.8 µM

Compound: Oc1cc(O)c2c(c1)OC(c1ccc(O)c(O)c1)C(O)C2 (centres unmarked) [compound 73, Catechin]
IC50 (ACLY [2]): 23.6 ± 19.2 µM

Compound: O=c1c(O)c(-c2ccc(O)c(O)c2)oc2cc(O)cc(O)c12 [compound 29, Quercetin]
IC50 (ACLY [2]): 0.86 ± 0.05 µM
inhibition rate (ACLY [2]): 91.09%
fold more active compared with kaempferol (ACLY [2]; ratio of IC50 values): 10 fold
critical aggregation concentration (CAC) [4]: 6.47 µM

Results, then the compound that gave them:

IC50 (ACLY [2]): 4.07 ± 0.69 µM
Compound: O=c1c(O)c(-c2ccc(O)cc2O)oc2cc(O)cc(O)c12 [compound 87, Morin]

IC50 (ACLY [2]): 19.1 ± 11.6 µM
Compound: O=c1cc(-c2ccc(O)cc2)oc2cc(O)cc(O)c12 [compound 21, Apigenin]

IC50 (ACLY [2]): 0.64 ± 0.13 µM
inhibition rate (ACLY [2]): 88.28%
activity fold higher than that of apigenin (ACLY [2]; ratio of IC50 values): 30 fold
Compound: O=c1cc(-c2ccc(O)c(O)c2)oc2cc(O)cc(O)c12 [compound 51, Luteolin]

IC50 (ACLY [2]): 0.31 ± 0.02 µM
Compound: O=c1c(O)c(-c2ccc(O)c(O)c2)oc2c(O)c(O)cc(O)c12 [compound 93, Gossypetin]

IC50 (ACLY [2]): 0.71 ± 0.06 µM
inhibition rate (ACLY [2]): 91.80%
Compound: O=c1cc(-c2ccc(O)cc2)oc2cc(O)c(O)c(O)c12 [compound 52, Scutellarein]

IC50 (ACLY [2]): 2.14 ± 0.12 µM
Compound: O=c1c(O[C@@H]2O[C@H](CO)[C@@H](O)[C@H](O)[C@H]2O)c(-c2ccc(O)c(O)c2)oc2cc(O)cc(O)c12 [compound 20, Isoquercetin]

IC50 (ACLY [2]): 1.53 ± 0.08 µM
Compound: O=c1c(O[C@@H]2O[C@H](CO)[C@H](O)[C@H](O)[C@H]2O)c(-c2ccc(O)c(O)c2)oc2cc(O)cc(O)c12 [compound 6, Hyperoside]

IC50 (ACLY [2]): 0.5 ± 0.08 µM
inhibition rate (ACLY [2]): 96.07%
fold more active compared with kaempferol (ACLY [2]; ratio of IC50 values): 20 fold
DMR responses (aggregation state) ([4]; up to 100 μM): negligible DMR responses
Tm of ACLY (ACLY [5]; 40 μM herbacetin): 55.5 °C
Tm of ACLY (ACLY [5]; 200 μM herbacetin): 56.5 °C
stability of ACLY at a temperature gradient vs control (ACLY [6]; 200 μM, significant at 52, 57, 60 and 62 °C): more stable
isothermal dose-response of ACLY stability (ACLY [6]; 57 °C, different concentrations): concentration–dependent effect
Ki (ACLY [7]; ATP as substrate): 0.29 µM
Ki (ACLY [7]; CoA as substrate): 0.19 µM
Ki (ACLY [7]; citric acid (CA) as substrate): 0.11 µM
inhibition pattern (ACLY [7]; towards CA, ATP and CoA): noncompetitive inhibitor
Compound: O=c1c(O)c(-c2ccc(O)cc2)oc2c(O)c(O)cc(O)c12 [compound 18, Herbacetin]

IC50 (ACLY [2]): 10.2 ± 1.07 µM
Compound: O=c1c(O)c(-c2ccc(O)cc2)oc2cc(O)cc(O)c12 [compound 30, Kaempferol]

IC50 (ACLY [2]): 0.57 ± 0.09 µM
Compound: C[C@@H]1O[C@@H](Oc2cc(O)c3c(=O)c(O)c(-c4ccc(O)c(O)c4)oc3c2)[C@H](O)[C@H](O)[C@H]1O [compound 106, 7-(α-L-Rhamnopyranosyloxy)-2-(3,4-dihydroxyphenyl)-3,5-dihydroxy-4H-1-benzopyran-4-one]

IC50 (ACLY [2]): 1.29 ± 0.14 µM
Compound: Oc1cc(O)c2cc(O)c(-c3ccc(O)c(O)c3)[o+]c2c1 [compound 74, Cyanidin]

— article PMC9504748, “Discovery of Flavonoids as Novel Inhibitors of ATP Citrate Lyase: Structure–Activity Relationship and Inhibition Profiles” (International Journal of Molecular Sciences, 2022)
